Patent publication US8470817B2, “Compounds and methods for treatment of cancer” (Sunesis Pharmaceuticals, Inc., priority 2009, dated 2013)

What was measured:
[1] = system: A549 (Human lung adenocarcinoma epithelial cell line); assay: MTT cell proliferation assay in A549 cell line; format: cell-based; conditions: A549 cells, treated 72 hr or 96 hr
Method: (§1) Exemplary assays include MTT cell proliferation assay in A549 (Human lung adenocarcinoma epithelial cell line), and HL60 (Human promyelocytic leukemia cells) cell lines. Suitable cells include those derived through cell culture from patient samples (cancer cell lines) as well as cells derived using routine molecular biology techniques, e.g., retroviral transduction, transfection, mutagenesis, etc.
(§2) In an exemplary MTT assay, approximately 1,000 cells (A549 or HL60) are plated into each well of a 96-well plate. Cells are treated in duplicate with test compounds in a dose titration manner, typically 3-fold dilutions, eleven points per assay, with starting concentrations of 20 or 10 μM) or with DMSO-control (0.2% final concentration). Cells are treated for 72 hours (hr) or 96 hr before being analyzed by the MTT method. After 72 hr or 96 hr of compound treatment, 10 μL of MTT dye solution (5 mg/mL MTT dye [Sigma #M2128] in water) is added to each well and incubated at 37° C. for 2 hr. Following incubation, 100 μL of lysis buffer (10% SDS, 0.01 N HCl in water) is added to each well and incubated overnight at 37° C. The plate is analyzed the following day using a colorimetric plate reader at 595 nm wavelength. Values obtained for treatment samples are normalized to control samples.

[2] = system: HL60 (Human promyelocytic leukemia cells); assay: MTT cell proliferation assay in HL60 cell line; format: cell-based; conditions: HL-60, treated 72 hr or 96 hr
Method: as §1, §2

| IC50 [1] | IC50 [2] | Structure (SMILES) |
| --- | --- | --- |
| < 3 µM | < 3 µM | CN[C@H]1CN(c2ccc3c(=O)c(S(=O)(=O)N4CCCCC4)cn(-c4nccs4)c3n2)C[C@@H]1OC |
| < 3 µM | 3 to 10 µM | O=c1c(S(=O)(=O)N2CCCCC2)cn(-c2nccs2)c2nc(N3CCN(c4cccnc4)CC3)ccc12 |
| < 3 µM | < 3 µM | O=c1c(S(=O)(=O)N2CCCCC2)cn(-c2nccs2)c2nc(N3CCN(C4CCCCC4)CC3)ccc12 |
| < 3 µM | – | O=c1c(S(=O)(=O)N2CCCCC2)cn(-c2nccs2)c2nc(N3CCN(c4ccc(C(F)(F)F)cc4)CC3)ccc12 |
| < 3 µM | < 3 µM | C[C@@H]1CN(c2ccc3c(=O)c(S(=O)(=O)N4CCCCC4)cn(-c4nccs4)c3n2)CCN1 |
| < 3 µM | < 3 µM | C[C@@H]1CN(c2ccc3c(=O)c(S(=O)(=O)N4CCCCC4)cn(-c4nccs4)c3n2)C[C@H](C)N1 |
| < 3 µM | < 3 µM | CN(C)[C@@H]1CCN(c2ccc3c(=O)c(S(=O)(=O)N4CCCCC4)cn(-c4nccs4)c3n2)C1 |
| < 3 µM | < 3 µM | O=c1c(S(=O)(=O)N2CCCCC2)cn(-c2nccs2)c2nc(N3CCC(N4CCCC4)CC3)ccc12 |
| 3 to 10 µM | > 10 µM | COC[C@@H]1CCCN1c1ccc2c(=O)c(S(=O)(=O)N3CCCCC3)cn(-c3nccs3)c2n1 |
| 3 to 10 µM | > 10 µM | COC[C@H]1CCCN1c1ccc2c(=O)c(S(=O)(=O)N3CCCCC3)cn(-c3nccs3)c2n1 |
| < 3 µM | < 3 µM | N[C@@H]1CCN(c2ccc3c(=O)c(S(=O)(=O)N4CCCCC4)cn(-c4nccs4)c3n2)C1 |
| < 3 µM | > 10 µM | O=c1c(S(=O)(=O)N2CCCCC2)cn(-c2nccs2)c2nc(N3CCC(O)C3)ccc12 (centres unmarked) |
| < 3 µM | < 3 µM | CCN(CC)C1CCN(c2ccc3c(=O)c(S(=O)(=O)N4CCCCC4)cn(-c4nccs4)c3n2)C1 (centres unmarked) |
| 3 to 10 µM | > 10 µM | O=c1c(S(=O)(=O)N2CCCCC2)cn(-c2nccs2)c2nc(N3CCOCC3)ccc12 |
| < 3 µM | > 10 µM | CN1CCN(c2ccc3c(=O)c(S(=O)(=O)N4CCCCC4)cn(-c4nccs4)c3n2)CC1 |
| < 3 µM | < 3 µM | O=c1c(S(=O)(=O)N2CCCCC2)cn(-c2nccs2)c2nc(N3CCNCC3)ccc12 |
| < 3 µM | > 10 µM | O=c1c(S(=O)(=O)N2CCCCC2)cn(-c2nccs2)c2nc(N3CCCC3)ccc12 |
| < 3 µM | < 3 µM | CN[C@H]1CN(c2ccc3c(=O)c(S(=O)(=O)N(C)C)cn(-c4nccs4)c3n2)C[C@@H]1OC |
| > 10 µM | > 10 µM | CN(C)S(=O)(=O)c1cn(-c2nccs2)c2nc(N3CCN(c4ccccn4)CC3)ccc2c1=O |
| < 3 µM | 3 to 10 µM | CN(C)S(=O)(=O)c1cn(-c2nccs2)c2nc(N3CCN(C4CCCCC4)CC3)ccc2c1=O |
| 3 to 10 µM | > 10 µM | C[C@@H]1CN(c2ccc3c(=O)c(S(=O)(=O)N(C)C)cn(-c4nccs4)c3n2)CCN1 |
| 3 to 10 µM | 3 to 10 µM | C[C@@H]1CN(c2ccc3c(=O)c(S(=O)(=O)N(C)C)cn(-c4nccs4)c3n2)C[C@H](C)N1 |
| < 3 µM | 3 to 10 µM | CN(C)[C@@H]1CCN(c2ccc3c(=O)c(S(=O)(=O)N(C)C)cn(-c4nccs4)c3n2)C1 |
| 3 to 10 µM | 3 to 10 µM | CN(C)S(=O)(=O)c1cn(-c2nccs2)c2nc(N3CCC(N4CCCC4)CC3)ccc2c1=O |

| IC50 [1] | IC50 [2] | Structure (SMILES) |
| --- | --- | --- |
| > 10 µM | > 10 µM | COC[C@@H]1CCCN1c1ccc2c(=O)c(S(=O)(=O)N(C)C)cn(-c3nccs3)c2n1 |
| < 3 µM | < 3 µM | CN(C)S(=O)(=O)c1cn(-c2nccs2)c2nc(N3CC[C@@H](N)C3)ccc2c1=O |
| > 10 µM | > 10 µM | CN(C)S(=O)(=O)c1cn(-c2nccs2)c2nc(N3CCOCC3)ccc2c1=O |
| 3 to 10 µM | 3 to 10 µM | CN(C)S(=O)(=O)c1cn(-c2nccs2)c2nc(N3CCNCC3)ccc2c1=O |
| < 3 µM | > 10 µM | CN(C)S(=O)(=O)c1cn(-c2nccs2)c2nc(N3CCCC3)ccc2c1=O |
| > 10 µM | > 10 µM | CN[C@H]1CN(c2cnc3c(=O)c(C(=O)O)cn(-c4nccs4)c3n2)C[C@@H]1OC |
| > 10 µM | > 10 µM | CN(C)[C@@H]1CCN(c2cnc3c(=O)c(C(=O)O)cn(-c4nccs4)c3n2)C1 |
| > 10 µM | > 10 µM | N[C@@H]1CCN(c2cnc3c(=O)c(C(=O)O)cn(-c4nccs4)c3n2)C1 |
| > 10 µM | > 10 µM | COC1CCN(c2cnc3c(=O)c(C(=O)O)cn(-c4nccs4)c3n2)C1 (centres unmarked) |
| > 10 µM | > 10 µM | O=C(O)c1cn(-c2nccs2)c2nc(N3CCC(O)C3)cnc2c1=O (centres unmarked) |
| > 10 µM | > 10 µM | CCN(CC)C1CCN(c2cnc3c(=O)c(C(=O)O)cn(-c4nccs4)c3n2)C1 (centres unmarked) |
| 3 to 10 µM | 3 to 10 µM | O=C(O)c1cn(-c2nccs2)c2nc(N3CCCC3)cnc2c1=O |
| 3 to 10 µM | > 10 µM | CC1CCCN1c1cnc2c(=O)c(C(=O)O)cn(-c3nccs3)c2n1 (centres unmarked) |
| > 10 µM | > 10 µM | COC[C@H]1CCCN1c1cnc2c(=O)c(C(=O)O)cn(-c3nccs3)c2n1 |
| > 10 µM | > 10 µM | COC[C@@H]1CCCN1c1cnc2c(=O)c(C(=O)O)cn(-c3nccs3)c2n1 |
| > 10 µM | > 10 µM | CN1CCN(c2cnc3c(=O)c(C(=O)O)cn(-c4nccs4)c3n2)CC1 |
| > 10 µM | > 10 µM | CCN1CCN(c2cnc3c(=O)c(C(=O)O)cn(-c4nccs4)c3n2)CC1 |
| > 10 µM | > 10 µM | O=C(O)c1cn(-c2nccs2)c2nc(N3CCN(C4CCCCC4)CC3)cnc2c1=O |
| > 10 µM | > 10 µM | O=C(O)c1cn(-c2nccs2)c2nc(N3CCNCC3)cnc2c1=O |
| > 10 µM | > 10 µM | C[C@@H]1CN(c2cnc3c(=O)c(C(=O)O)cn(-c4nccs4)c3n2)C[C@H](C)N1 |
| > 10 µM | > 10 µM | C[C@@H]1CN(c2cnc3c(=O)c(C(=O)O)cn(-c4nccs4)c3n2)CCN1 |
| > 10 µM | > 10 µM | O=C(O)c1cn(-c2nccs2)c2nc(N3CCOCC3)cnc2c1=O |
| > 10 µM | > 10 µM | O=C(O)c1cn(-c2nccs2)c2nc(N3CCN(c4ccccn4)CC3)cnc2c1=O |
| > 10 µM | > 10 µM | CC(C)(C)OC(=O)N1CCN(c2cnc3c(=O)c(C(=O)O)cn(-c4nccs4)c3n2)CC1 |
